In PubChem BioAssay (NCI) one finds TGI data, which are given here for nine compounds.

Test systems include OVCAR-4 ovarian; MALME-3M melanoma; K-562 leukemia; EKVX NSCLC; RPMI-8226 leukemia; MOLT-4 leukemia; RXF 393 renal; IGROV1 ovarian; COLO 205 colon; HL-60(TB) leukemia; HCC-2998 colon; SNB-75 CNS; UACC-257 melanoma; NCI-H460 lung; SK-MEL-2 melanoma; MCF7 breast; MDA-MB-231 breast; HS 578T breast; NCI/ADR-RES ovarian.
Holding throughout (experiment): NCI-60 cell line screen, 48 h

Each structure is given as a SMILES string.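 The compound was tested at five concentrations on cells cultured in 96-well plates, with a 48-hour exposure period. TGI: concentration producing complete growth inhibition.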 Some results are limits rather than exact numbers.

On to `O=C1CCCCC1C1(O)C(=O)Nc2cc(F)ccc21` (centres undefined), for which the TGI with OVCAR-4 ovarian, in the assay on MALME-3M melanoma, in the assay on K-562 leukemia, in the assay on EKVX NSCLC, in the assay on RPMI-8226 leukemia and in the assay on MOLT-4 leukemia was over 100 µM in each case. In addition, the TGI in the assay on RXF 393 renal, with IGROV1 ovarian, with COLO 205 colon, in the assay on HL-60(TB) leukemia, with HCC-2998 colon and in the assay on SNB-75 CNS was over 100 µM in each case. Moreover, the TGI in the assay with UACC-257 melanoma, in the assay on NCI-H460 lung and in the assay on SK-MEL-2 melanoma was over 100 µM in each case.

Turning to `Fc1ccc(C2(CCCN3CCc4[nH]c5cc(F)ccc5c4C3)OCCO2)cc1`, the TGI was determined as 25.3 µM in the assay on MCF7 breast; 26.7 µM with OVCAR-4 ovarian; 25.9 µM with MALME-3M melanoma; 18.3 µM with K-562 leukemia; 29.1 µM in the assay with EKVX NSCLC; 28.1 µM in the assay with RPMI-8226 leukemia. Besides, the TGI with MDA-MB-231 breast is 35 µM; in the assay with MOLT-4 leukemia, 21.9 µM; in the assay on RXF 393 renal, 26.7 µM; with IGROV1 ovarian, 35.4 µM; with COLO 205 colon it was 24.1 µM; with HL-60(TB) leukemia, 25.7 µM. For the same compound, the TGI was 17.4 µM in the assay on HS 578T breast; 4.21 µM with HCC-2998 colon; over 100 µM in the assay with NCI/ADR-RES ovarian; 25.1 µM in the assay on SNB-75 CNS; 16.5 µM with UACC-257 melanoma; 24.1 µM in the assay with NCI-H460 lung.

In the case of `CC(=O)OC[C@@]12CC[C@H]3C(C)(C)CCC[C@]3(C)[C@H]1C[C@@H](C1=CC(=O)O[C@H]1O)O2`, the TGI was 11.2 µM in the assay with MCF7 breast; 3.56 µM in the assay on K-562 leukemia; 24.3 µM in the assay on EKVX NSCLC; 7.27 µM with RPMI-8226 leukemia; 6.23 µM in the assay on MOLT-4 leukemia; 5.78 µM with IGROV1 ovarian. Further, the TGI came to 10.4 µM in the assay with COLO 205 colon; 17 µM in the assay on HS 578T breast; 3.12 µM with HCC-2998 colon; 16.1 µM with NCI/ADR-RES ovarian; 9.26 µM in the assay on UACC-257 melanoma; 29 µM in the assay on NCI-H460 lung. For the same compound, the TGI with SK-MEL-2 melanoma came to 4.37 µM.

On to `CNC(=S)NNC(=O)c1c(C)nc2sccn12`, for which the TGI in the assay on MALME-3M melanoma, with K-562 leukemia, with EKVX NSCLC, in the assay with MOLT-4 leukemia, in the assay with RXF 393 renal and in the assay with IGROV1 ovarian was over 100 µM in each case. For the same compound, the TGI in the assay on COLO 205 colon, with HL-60(TB) leukemia, in the assay with HCC-2998 colon, with UACC-257 melanoma, in the assay on NCI-H460 lung and in the assay on SK-MEL-2 melanoma was over 100 µM throughout.

For the compound `C/C(Sc1ccccc1)=C1/CCCN(Cc2ccccc2)C1`, the TGI was 57.5 µM with MCF7 breast; over 100 µM in the assay with OVCAR-4 ovarian; 28.6 µM with MALME-3M melanoma; 38.6 µM with K-562 leukemia; over 100 µM in the assay with EKVX NSCLC; 43.3 µM with RPMI-8226 leukemia. Further, the TGI in the assay on MDA-MB-231 breast is 76.5 µM; in the assay on MOLT-4 leukemia, 39.4 µM; in the assay with RXF 393 renal, 36.3 µM; in the assay on IGROV1 ovarian, over 100 µM; with COLO 205 colon, 32.9 µM; with HL-60(TB) leukemia, 32.6 µM. Also, the TGI in the assay on HS 578T breast was found to be 41.4 µM; in the assay on HCC-2998 colon, 53.3 µM; with NCI/ADR-RES ovarian, 74.1 µM; in the assay with SNB-75 CNS it was 86.3 µM; in the assay with UACC-257 melanoma it was 44.6 µM; in the assay on NCI-H460 lung, 96.1 µM. This compound also showed a TGI in the assay on SK-MEL-2 melanoma of 34 µM.

In the case of `COc1ccc(NC(=O)CSc2nnc(Cc3ccccc3)o2)cc1`, the TGI in the assay on OVCAR-4 ovarian, in the assay with MALME-3M melanoma, in the assay on K-562 leukemia, in the assay on RPMI-8226 leukemia, in the assay on MOLT-4 leukemia and in the assay with RXF 393 renal was over 100 µM in each case. In addition, the TGI with IGROV1 ovarian, in the assay with COLO 205 colon, with HCC-2998 colon, in the assay on SNB-75 CNS, with UACC-257 melanoma and in the assay with NCI-H460 lung was over 100 µM throughout. The TGI in the assay on SK-MEL-2 melanoma is over 100 µM.

`CCN(CC)C(=O)C1=C(C)NC(C)=C(C(=O)N(CC)CC)C1`: the TGI in the assay with MCF7 breast, in the assay with OVCAR-4 ovarian, in the assay with MALME-3M melanoma, in the assay on K-562 leukemia, in the assay on EKVX NSCLC and in the assay on RPMI-8226 leukemia was over 100 µM throughout. The TGI with MDA-MB-231 breast, with MOLT-4 leukemia, in the assay on RXF 393 renal, in the assay with IGROV1 ovarian, in the assay on COLO 205 colon and with HL-60(TB) leukemia was over 100 µM in each case. Further, the TGI in the assay with HS 578T breast is over 100 µM; with HCC-2998 colon, over 100 µM; in the assay with SNB-75 CNS, 93.4 µM; in the assay on UACC-257 melanoma it was over 100 µM; with NCI-H460 lung, over 100 µM; in the assay with SK-MEL-2 melanoma, over 100 µM.

Turning to `O=C1OC(C2Cc3cc4c(cc3C2=O)CCC4)c2ccccc21` (centres undefined), the TGI in the assay with MCF7 breast, in the assay with OVCAR-4 ovarian, with MALME-3M melanoma, in the assay with K-562 leukemia, in the assay on EKVX NSCLC and in the assay on RPMI-8226 leukemia was over 100 µM in each case. The TGI was over 100 µM in the assay on MDA-MB-231 breast; 64.4 µM with MOLT-4 leukemia; over 100 µM in the assay with IGROV1 ovarian; over 100 µM in the assay with COLO 205 colon; over 100 µM in the assay with HL-60(TB) leukemia; over 100 µM with HS 578T breast. Moreover, the TGI was 98.7 µM in the assay with HCC-2998 colon; over 100 µM in the assay with NCI/ADR-RES ovarian; over 100 µM in the assay on SNB-75 CNS; over 100 µM with UACC-257 melanoma; over 100 µM in the assay with NCI-H460 lung; over 100 µM in the assay on SK-MEL-2 melanoma.

Turning to `Cn1c(=O)c2c(ncn2CCCCn2ccnc2[N+](=O)[O-])n(C)c1=O`, the TGI with OVCAR-4 ovarian, in the assay on MALME-3M melanoma, with K-562 leukemia, with EKVX NSCLC, with RPMI-8226 leukemia and with MOLT-4 leukemia was over 100 µM in each case. Besides, the TGI with RXF 393 renal, in the assay with IGROV1 ovarian, in the assay with COLO 205 colon, with HL-60(TB) leukemia, in the assay with SNB-75 CNS and with NCI-H460 lung was over 100 µM in each case. Further, the TGI with SK-MEL-2 melanoma was over 100 µM.
